# Patent US20130059787A1, “METHODS OF USING HUMAN PROTEIN KINASE C DELTA VIII AS A BIOMARKER” (UNITED STATES DEPARTMENT OF VETERAN AFFAIRS, priority 2010, published 2013)
# Experiments:
# Type in all cases: cell-based, human
# A1 = experiment: Apoptosis micro-array (SuperArray, real-time RT-PCR) in NT2 cells; conditions: RA about 24 h vs control
# Description: (§1) FIG. 4 is a 3D profile of the results from the apoptosis micro-array. The graph represents an average of control and RA (1 day) samples carried out in triplicate. The average ΔCt=Ct(gene of interest)−Ct(housekeeping gene).
# (§2) The inventors have shown that retinoic acid increases the levels of PKCδVIII in NT2 cells. An apoptosis micro-array (SuperArray, catalog #PAHS-012A) was used to determine the profiles of proteins associated with the apoptotic cascade. RNA was isolated from control and RA (about 24 h) treated NT2 cells and used in the analysis. Real-time RT-PCR was performed according to the manufacturers' protocol and data was analyzed by SuperArray software (FIG. 4). The inventors observed about a 6-fold increase in Bcl-2 levels which were concurrent with an increase in PKCδVIII levels following RA treatment.
# Bcl-2 = experiment: as above; conditions: RA about 24 h vs control
# Description: as §1, §2
# Mcl-1 = experiment: as above; conditions: RA about 24 h vs control
# Description: as §1, §2
# [1] = test system: 5′ splice site II of PKCδ exon 10; experiment: pSPL3_PKCδ splicing minigene in NT2 cells, RT-PCR; conditions: RA about 10 μM, 24 h
# Protocol: (a) schematic represents PKCδ pre-mRNA exon 10 and flanking introns cloned into pSPL3 splicing vector between the SD and SA exons. The resulting minigene is referred to as pSPL3_PKCδ minigene. Arrows indicate position of primers used in RT-PCR analysis. (b) pSPL3_PKCδ minigene and pSPL3 empty vector were transfected overnight, and then the cells were treated with or without about 10 μM RA for about 24 h. Total RNA was extracted and RT-PCR performed using primers as described above. Expected products are SD-SA: constitutive splicing; SSI: usage of 5′ splice site I; SSII: usage of 5′ splice site II. (c) About 2 μg of SC35 or SF2/ASF was co-transfected along with the pSPL3_PKCδ splicing minigene. […] Graphs represent percent exon inclusion calculated as SS II/(SS II+SSI)×100 in the samples and are representative of four experiments performed separately. […]
# Splicing minigenes are advantageous to identify cis-elements on the pre-mRNA involved in regulated alternative splicing. […] Since the human PKCδ splice variants used alternative 5′ splice sites as determined previously, exon 10 of PKCδ pre-mRNA along with its flanking 3′ and 5′ intronic sequences was cloned (as described under “Experimental Procedures”) in the multiple cloning site (MCS) between the splice donor (SD) and splice acceptor (SA) exons of pSPL3, a vector developed to study splicing events (schematic shown in FIG. 10a). […]
compound,measurement,setting,value
"CC1=C(/C=C/C(C)=C/C=C/C(C)=C/C(=O)O)C(C)(C)CCC1 [RA, all-trans-retinoic acid]",A1 levels,A1,Moderate increases
same,increase in Bcl-2 levels,Bcl-2,~6 fold
same,Mcl-1 levels,Mcl-1,Moderate increases
same,utilization of 5′ splice site II of PKCδ exon 10 in pSPL3_PKCδ minigene,[1],increased utilization
